# Values of other authors as cited in patent publication US20090311266A1, “Inhibitors of the endothelin signalling pathway and alphavbeta3 integrin receptor antagonists for combination therapy” (BASF AKTIENGESELLSCHAFT, priority 1999, published 2009).
# Legend:
# [1] = test system: ischemic complications after coronary interventions
# [2] = test system: porcine coronary injury model
# [3] = test system: pigs with coronary artery stents; conditions: 28 days of oral treatment (b.i.d.)
molecule,measurement,setting,value
"abciximab: anti-platelet integrin αIIbβ3 antibody abciximab (c7E3 Fab, Reopro®)","suppression of ischemic complications (endpoints death, MI or repeat intervention)",[1],sustained suppression of ischemic complications
cyclo[R-G-D-Mamb-A] [XJ 735],less lumen stenosis,[2],2.9 fold
same,reduction of neointimal hyperplasia,[2],43%
"CCCCN(CCCC)C(=O)CN1C[C@H](c2ccc3c(c2)OCO3)[C@@H](C(=O)O)[C@@H]1c1ccc(OC)cc1 (relative stereo) [A 127722, trans-trans-2-(4-methoxyphenyl)-4-(3,4-methylendioxyphenyl)-1-(2-(N,N-dibutylamino)-2-oxoethyl)-pyrrolidine-3-carboxylic acid]",maximal reduction in neointima formation,[3],about 30%
